Values quoted from earlier work, collected in patent EP4659596A1 (Nicoventures Trading Limited, priority 2024, dated 2025).

Conditions: partition coefficient between octanol and water; organic acids of Table 1
In the case of isopropyl benzoic acid, the logP is given as 3.5. In the case of ethyl benzoic acid, the logP is given as 2.9. For `CC(C)[C@@H]1CC[C@@H](C)C[C@H]1OC(=O)CCC(=O)O` [monomenthyl succinate], the logP is listed as 3.
